According to patent US6750348B1, “Chemokine receptor binding heterocyclic compounds” (AnorMED, Inc., priority 1999, dated 2004):
pEC50: −log10 of the molar value. Where two headings read alike, the source gives them in different places.

Tested on: HIV-1 NL4.3 or IIIB
Test: Inhibition of HIV-1 (NL4.3 or IIIB) replication in MT-4 cells (MTT)
Format: cell-based
Conditions: Human immunodeficiency virus 1, IIIB; for EC50: MT4, read-out: EC50, inhibition of HIV-1 NL4.3 or IIIB replication; for pEC50: MT4, read-out: EC50, inhibition of HIV-1 NLA.3 or IIIB replication
Description: Compounds were tested for their ability to inhibit HIV-1 replication in MT-4 cells or PBMC's (peripheral blood mononucleocytes) using published procedures (for example, see: Labrosse et al. J. Virol. 1998, 6381-6388; Simmons et al. J. Virol. 1998, 8453-8457; Donzella et al. Nature Medicine 1998, 72-77; Schols et al. J. Exp. Med. 1997, 1383-1388; De Clercq et al. Antiviral Res. 1997, 147-156; and Bridger et al. U.S. patent application Ser. No. 09/111,895). In addition to the above references, experimental methods for performing anti-viral assays can also be found in: Bridger et al. J. Med. Chem. 1995, 38, 366-378; Bridger et al. J. Med. Chem. 1996, 39, 109-119; Bridger et al. U.S. Pat. No. 5,698,546; Bridger et al. U.S. Pat. No. 5,583,131; Bridger et al. U.S. Pat. No. 5,817,807; De Clercq et al. Antimicrob. Agents and Chemother. 1994, 38, 668-674.
1. The HIV-1 strains NL4.3 and IIIB are T-tropic strains that exclusively use CXCR4 as the co-receptor for entry into cells. MT-4 Cells express CXCR4 but not CCR5.
Inhibition of HIV-1 NL4.3 (or IIIB) replication assays were performed as previously described (Bridger et al. J. Med. Chem. 1999, 42, 3971-3981; De Clercq et al. Proc. Natl. Acad. Sci, 1992, 89, 5286-5290; De Clercq et al. Antimicrob. Agents Chemother. 1994, 38, 668-674; Bridger et al. J. Med. Chem. 1995, 38, 366-378). Anti-HIV activity and cytotoxicity measurements were carried out in parallel. They were based on the viability of MT-4 cells that had been infected with HIV in the presence of various concentrations of the test compounds. After the MT-4 cells were allowed to proliferate for 5 days, the number of viable cells was quantified by a tetrazolium-based calorimetric 3-(4,5-dimethylthiazol-2-yl)-2,5-diphenyltetrazolium bromide (MTT) procedure in 96-well microtrays. In all of these assays, viral input (viral multiplicity of infection, MOI) was 0.01, or 100 times the 50% cell culture infective dose (CCID50). The EC50 was defined as the concentration required to protect 50% of the virus-infected cells against viral cytopathicity.

EC50 [µg/mL]	pEC50	Compound
< 20		c1ccc(CNCc2ccc(CNC3CCCCc4cccnc43)cc2)nc1 (stereo not shown) [Example 1, N-(2-pyridinylmethyl)-N′-(6,7,8,9-tetrahydro-5H-cyclohepta[b]pyridin-9-yl)-1,4-benzenedimethanamine]
< 20		c1ccc(CNCc2ccc(CNC3CCCc4cccnc43)cc2)nc1 (stereo not shown) [Example 2, N-(2-pyridinylmethyl)-N′-(5,6,7,8-tetrahydro-8-quinolinyl)-1,4-benzenedimethanamine]
< 20		c1ccc(CNCc2ccc(CNC3CCc4cccnc43)cc2)nc1 (stereo not shown) [Example 3, N-(2-pyridinylmethyl)-N′-(6,7-dihydro-5H-cyclopenta[b]pyridin-7-yl)-1,4-benzenedimethanamine]
< 20		c1ccc(CNCc2ccc(CNC3CCCc4ccccc43)cc2)nc1 (stereo not shown) [Example 4, N-(2-pyridinylmethyl)-N′-(1,2,3,4-tetrahydro-1-naphthalenyl)-1,4-benzenedimethanamine]
< 20		O=C(NCCN(Cc1ccc(CNCc2ccccn2)cc1)C1CCCc2cccnc21)c1ccc2ccccc2c1 (stereo not shown) [Example 19, N-(2-pyridinylmethyl)-N′-(2-(2-naphthoyl)aminoethyl)-N′-(5,6,7,8-tetrahydro-8-quinolinyl)-1,4-benzenedimethanamine]
< 20		c1ccc(CNCc2ccc(CN(Cc3nc4ccccc4[nH]3)C3CCCc4cccnc43)cc2)nc1 (stereo not shown) [Example 61, N-(2-pyridinylmethyl)-N′-(1H-benzimidazol-2-ylmethyl)-N′-(5,6,7,8-tetrahydro-8-quinolinyl)-1,4-benzenedimethanamine]
< 20		c1ccc(CCN(Cc2ccc(CNCc3ccccn3)cc2)C2CCCc3cccnc32)cc1 (stereo not shown) [Example 69, N-(2-pyridinylmethyl)-N′-(2-phenylethyl)-N′-(5,6,7,8-tetrahydro-8-quinolinyl)-1,4-benzenedimethanamine]
< 20		c1ccc(CCCN(Cc2ccc(CNCc3ccccn3)cc2)C2CCCc3cccnc32)cc1 (stereo not shown) [Example 70, N-(2-pyridinylmethyl)-N′-(3-phenylpropyl)-N′-(5,6,7,8-tetrahydro-8-quinolinyl)-1,4-benzenedimethanamine]
	> 4.70	COc1cccc(CN(Cc2ccc(CNCc3ccccn3)cc2)C2CCCc3cccnc32)c1OC (stereo not shown) [Example 95, N-[(2,3-dimethoxyphenyl)methyl]-N′-(2-pyridinylmethyl)-N-(5,6,7,8-tetrahydro-8-quinolinyl)-1,4-benzenedimethanamine]
	> 4.70	N#Cc1ccc(CN(Cc2ccc(CNCc3ccccn3)cc2)C2CCCc3cccnc32)cc1 (stereo not shown) [Example 101, N-[(4-cyanophenyl)methyl]-N′-(2-pyridinylmethyl)-N-(5,6,7,8-tetrahydro-8-quinolinyl)-1,4-benzenedimethanamine]
	> 4.70	CC(=O)Nc1ccc(CN(Cc2ccc(CNCc3ccccn3)cc2)C2CCCc3cccnc32)cc1 (stereo not shown) [Example 102, N-[(4-acetamidophenyl)methyl]-N′-(2-pyridinylmethyl)-N-(5,6,7,8-tetrahydro-8-quinolinyl)-1,4-benzenedimethanamine]
	> 4.70	c1ccc(Oc2ccc(CN(Cc3ccc(CNCc4ccccn4)cc3)C3CCCCc4cccnc43)cc2)cc1 (stereo not shown) [Example 103, N-[(4-phenoxyphenyl)methyl]-N′-(2-pyridinylmethyl)-N-(6,7,8,9-tetrahydro-5H-cyclohepta[b]pyridin-9-yl)-1,4-benzenedimethanamine]
	> 4.70	c1ccc(COc2ccc(CN(Cc3ccc(CNCc4ccccn4)cc3)C3CCCCc4cccnc43)cc2)cc1 (stereo not shown) [Example 105, N-[(4-benzyloxyphenyl)methyl]-N′-(2-pyridinylmethyl)-N-(6,7,8,9-tetrahydro-5H-cyclohepta[b]pyridin-9-yl)-1,4-benzenedimethanamine]
	> 4.70	c1ccc(CNCc2ccc(CN(Cc3ccc4c(c3)OCO4)C3CCCc4cccnc43)cc2)nc1 (stereo not shown) [Example 112, N-[(3,4-methylenedioxyphenyl)methyl]-N′-(2-pyridinylmethyl)-N-(5,6,7,8-tetrahydro-8-quinolinyl)-1,4-benzenedimethanamine]
	> 4.70	c1ccc(CNCc2ccc(CN(Cc3cccnc3)C3CCCCc4cccnc43)cc2)nc1 (stereo not shown) [Example 113, N-(3-pyridinylmethyl)-N′-(2-pyridinylmethyl)-N-(6,7,8,9-tetrahydro-5H-cyclohepta[b]pyridin-9-yl)-1,4-benzenedimethanamine]
	> 4.70	CCCOc1ccc(CN(Cc2ccc(CNCc3ccccn3)cc2)C2CCCCc3cccnc32)cc1 (stereo not shown) [Example 116, N-[(4-propoxyphenyl)methyl]-N′-(2-pyridinylmethyl)-N-(6,7,8,9-tetrahydro-5H-cyclohepta[b]pyridin-9-yl)-1,4-benzenedimethanamine]
	> 4.70	COc1cc(CN(Cc2ccc(CNCc3ccccn3)cc2)C2CCCCc3cccnc32)cc2c1OCO2 (stereo not shown) [Example 119, N-[(3-methoxy-4,5-methylenedioxyphenyl)methyl]-N′-(2-pyridinylmethyl)-N-(6,7,8,9-tetrahydro-5H-cyclohepta[b]pyridin-9-yl)-1,4-benzenedimethanamine]
	> 4.70	N#Cc1cccc(CN(Cc2ccc(CNCc3ccccn3)cc2)C2CCCc3cccnc32)c1 (stereo not shown) [Example 121, N-[(3-cyanophenyl)methyl]-N′-(2-pyridinylmethyl)-N-(5,6,7,8-tetrahydro-8-quinolinyl)-1,4-benzenedimethanamine]
	> 4.70	CCc1ccc(CN(Cc2ccc(CNCc3ccccn3)cc2)C2CCCc3cccnc32)s1 (stereo not shown) [Example 123, N-(5-ethylthiophene-2-ylmethyl)-N′-(2-pyridinylmethyl)-N-(5,6,7,8-tetrahydro-8-quinolinyl)-1,4-benzenedimethanamine]
	> 4.70	Fc1cccc(F)c1CN(Cc1ccc(CNCc2ccccn2)cc1)C1CCCCc2cccnc21 (stereo not shown) [Example 124, N-[(2,6-difluorophenyl)methyl]-N′-(2-pyridinylmethyl)-N-(6,7,8,9-tetrahydro-5H-cyclohepta[b]pyridin-9-yl)-1,4-benzenedimethanamine]
	> 4.70	Fc1cccc(F)c1CN(Cc1ccc(CNCc2ccccn2)cc1)C1CCCc2cccnc21 (stereo not shown) [Example 125, N-[(2,6-difluorophenyl)methyl]-N′-(2-pyridinylmethyl)-N-(5,6,7,8-tetrahydro-8-quinolinyl)-1,4-benzenedimethanamine]
	> 4.70	FC(F)Oc1ccccc1CN(Cc1ccc(CNCc2ccccn2)cc1)C1CCCCc2cccnc21 (stereo not shown) [Example 126, N-[(2-difluoromethoxyphenyl)methyl]-N′-(2-pyridinylmethyl)-N-(6,7,8,9-tetrahydro-5H-cyclohepta[b]pyridin-9-yl)-1,4-benzenedimethanamine]
	> 4.70	Fc1ccc(CN(Cc2ccc(CNCc3ccccn3)cc2)C2CCCc3cccnc32)c(F)c1 (stereo not shown) [Example 137, N-[(2,4-difluorophenyl)methyl]-N′-(2-pyridinylmethyl)-N-(5,6,7,8-tetrahydro-8-quinolinyl)-1,4-benzenedimethanamine]
	> 4.70	Cn1cccc1CN(Cc1ccc(CNCc2ccccn2)cc1)C1CCCc2cccnc21 (stereo not shown) [Example 138, N-(1-methylpyrrol-2-ylmethyl)-N′-(2-pyridinylmethyl)-N-(5,6,7,8-tetrahydro-8-quinolinyl)-1,4-benzenedimethanamine]
	> 4.70	Oc1ccccc1CN(Cc1ccc(CNCc2ccccn2)cc1)C1CCCc2cccnc21 (stereo not shown) [Example 139, N-[(2-hydroxyphenyl)methyl]-N′-(2-pyridinylmethyl)-N-(5,6,7,8-tetrahydro-8-quinolinyl)-1,4-benzenedimethanamine]
	> 4.70	COc1cc(CN(Cc2ccc(CNCc3ccccn3)cc2)C2CCCc3cccnc32)cc2c1OCO2 (stereo not shown) [Example 140, N-[(3-methoxy-4,5-methylenedioxyphenyl)methyl]-N′-(2-pyridinylmethyl)-N-(5,6,7,8-tetrahydro-8-quinolinyl)-1,4-benzenedimethanamine]
	> 4.70	c1ccc(CNCc2ccc(CN(Cc3cccnc3)C3CCCc4cccnc43)cc2)nc1 (stereo not shown) [Example 141, N-(3-pyridinylmethyl)-N′-(2-pyridinylmethyl)-N-(5,6,7,8-tetrahydro-8-quinolinyl)-1,4-benzenedimethanamine]
	> 4.70	Cn1c(CN(Cc2ccc(CNCc3ccccn3)cc2)C2CCCc3cccnc32)nc2ccccc21 (stereo not shown) [Example 144, N-(1-methylbenzimidazol-2-ylmethyl)-N′-(2-pyridinylmethyl)-N-(5,6,7,8-tetrahydro-8-quinolinyl)-1,4-benzenedimethanamine]
